Several values for one entry are separate records, joined by “and”; a condition that tells them apart may be missing. Identical values can stand only once.
How the values were obtained:
macrophages = assay: Membrane integrity (SYBR14/PI) of macrophage units after freeze thawing and freeze drying; format: cell-based; conditions: for cell survival (membrane integrity): freeze-dried, 0.5M Trehalose
From the text: Macrophage units were supplied by Professor Danon, Israel blood services, Tel-Hashomer, Israel. In the following experiments all buffy coats and/or macrophage units referred to were manipulated using the method and system for cultivating macrophages described in U.S. Pat. No. 6,146,890 which is incorporated herein by reference in its entirety, whereby hypo-osmotic shock is used to enhance the cells' differentiation into macrophages. Such manipulated cells were reported not to maintain viability after a conventional freezing process therefore their shelf life is very short, limiting their applications.
A part of the buffy coat was separated in order to produce mononuclear cells which include the monocyte/macrophage layer. The blood was separated on a Ficoll-Paque gradient for 30 minutes at 1000 g, afterwards the mononuclear layer was drawn out and washed twice in Phosphate Buffered Saline (PBS) (Calcium and Magnesium free, Bet Haemek, Israel) for 10 minutes at 200 g. The pellet was then resuspended with 3 ml of culture medium (RPMI 1640 with glutamine, 10% fetal calf serum and 1% antibiotic, all supplied by Bet Haemek, Israel). The rest of the buffy coat was left untouched.
Whole buffy coat or mononuclear cells in culture medium were incubated for one hour with different concentrations of Trehalose (0.1, 0.3, 0.5 and 1M). Incubation was done at 37° C., 5% CO2 humidified incubator.
Buffy coat samples and MNC samples were frozen by using the MTG-516 freezing apparatus (IMT, Israel) at a cooling rate of 5.1° C./min. Samples were rotated during freezing at 56 rounds per minute. After freezing, all samples were plunged into liquid nitrogen. Thawing was done at 37° C. in a water bath. Lyophilization was done by putting the frozen samples in a commercial lyophilizer (Labconco, USA) with a condenser temperature of −80° C. After drying, the cells were rehydrated with ultra pure water at 37° C. in order to regain their original volume (2.5 ml). […]

[1] = test system: mononuclear cells (MNC) derived from umbilical cord blood (UCB); assay: Membrane integrity (SYBR14/PI live/dead stain) of UCB derived MNC after freeze thawing or freeze drying; format: cell-based, human; conditions: for Membrane integrity (%): 0.1M trehalose in PBS
Method: In the following experiments umbilical cord blood (UCB) was received from “Sheba” Medical Center. The blood was separated on ficoll-paque gradient. 3 ml of Histopaque 1077 was put in a 15 ml plastic test tube. Above it 3 ml of UCB was put and the samples were centrifuged for 30 minutes at 1000 g. After spinning was finished the mononuclear layer was taken out and PBS was added up to 10 ml total volume. The samples were centrifuged again for 10 minutes at 200 g or 250 g., after which, the supernatant was discarded and another step of washing was performed (again, 10 ml PBS was added and samples were centrifuged for 10 minutes at 250 g). At the end of this step a freezing solution (as detailed in each experiment) was added to the cells pellet. The volume of the freezing solution varied depending on the desired cell concentration (concentrations may range for example from 1 to 10×10^6 cells/ml) or volume. Unless otherwise mentioned, a 2.5 ml cell suspension was transferred into a 16 mm glass tube that was then frozen using a multi-gradient directional freezing system (MTG-516 by IMT, Israel), operated essentially as described in WO03/020874.
Unless otherwise stated, the directional freezing system temperatures were set to: 5° C. to −10° C. to −40° C. to −70° C. Seeding was performed before the samples entered the −10° C. temperature. The velocity at which the samples were pushed through the channels of the freezing machine was set to 0.2 mm/sec, resulting in a cooling rate of 5.1° C./min. During freezing the samples were rotated at 60 rounds per minute (RPM). After completion of the freezing process, samples were put in a liquid-nitrogen (LN) tank until they were either thawed or transferred into a lyophilizer.
Lyophilization was performed by taking samples out of the LN tank and putting them in a commercial lyophilizer near the condenser (Labconco, USA), at condenser temperature of −80° C. Samples were held in the lyophilizer for 3 days. After 3 days of lyophilization samples were taken out and rehydrated with 2.4 ml of double distilled water (DDW) at 37° C.
Viability was assessed using the live/dead fluorescent stain SYBR14/PI (Propidium Iodide) or SYTO/PI (both from Molecular Probes, USA) for membrane integrity. These stains are nucleic acid stains, SYBR14 and SYTO are membrane permeable molecules and PI can enter the cell only if the membrane is damaged. Where so specified, the assay used was trypan blue (TB).

[2] = test system: UCB derived MNC (mature lymphocytes, CD3); assay: CD3 expression by FACS after lyophilization and re-hydration; format: cell-based, human; conditions: 0.1M trehalose
Method: Sample's volume was 2.5 ml and samples were frozen and then lyophilized as described above. After being in the lyophilizer for 72 h, the samples were taken out and re-hydrated with 2.4 ml of DDW at 37° C. After re-hydration samples were assayed for CD3 using FACS (fluorescent-activated cell sorter) in accordance with the method described in Hulling et al. The Journal of Immunology 2003, 171: 4824-4829.

UCB derived MNC = assay: Cell proliferation assay based on thymidine incorporation; design: species or system human; conditions: cells lyophilized at ×10 EGCG (1.89 mg/ml) compared with ×2.5 EGCG (0.47 mg/ml); 48 hour incubation; FIG. 3
Method: Sample's volume was 2.5 ml and samples were frozen and then lyophilized as described above. After being in the lyophilizer for 72 h, the samples were taken out and re-hydrated with 2.4 ml of DDW at 37° C. After re-hydration samples were assayed for CD3 using FACS (fluorescent-activated cell sorter) in accordance with the method described in Hulling et al. The Journal of Immunology 2003, 171: 4824-4829. In addition, a cell proliferation assay was performed. In brief, the hydrated cells were incubated for 48 hour after which a proliferation assay based on thymidine incorporation was carried out (Promega, USA). The results of the proliferation assay are depicted in FIG. 3, wherein the proliferation index of the cells is depicted as a function of their number at initial plating.

Row | Compound | cell survival (membrane integrity) (macrophages; second experiment, FIG. 6C) [%] | cell survival (membrane integrity) (macrophages; without Ficoll-Paque separation, FIG. 6B) [%] | membrane integrity (macrophages; frozen-thawed with 0.5M trehalose, whole macrophage units, FIG. 6C) [%] | membrane integrity ([1]; 0.1M trehalose with 0.945 or 1.89 mg/ml EGCG, lyophilized and rehydrated, FIG. 2B) | viability (EGCG dose response) ([1]; 0.4M Trehalose, 0.189, 0.47, 0.945 and 1.89 mg/ml EGCG, after freezing and thawing and after freeze drying and re-hydration (exception 0.945 mg/ml after freeze-drying)) | Membrane integrity (%) ([1]; Fresh with 0.47 mg/ml EGCG) | Membrane integrity (%) ([1]; Lyophilized with 0.47 mg/ml EGCG, re-hydrated) | percentage of cells that presented an intact membrane ([1]; after freeze drying with 1.89 mg/ml EGCG, 0.4M Trehalose in PBS, FIG. 2A) | CD3 (%) ([2]; Lyophilized with 0.47 mg/ml EGCG) | CD3 (%) ([2]; Lyophilized with 1.89 mg/ml EGCG) | proliferation index (UCB derived MNC)
1 | OC[C@H]1O[C@H](O[C@H]2O[C@H](CO)[C@@H](O)[C@H](O)[C@H]2O)[C@H](O)[C@@H](O)[C@@H]1O [trehalose, Trehalose] | 55.35±2.9 | 91.86±4.2 | 72.03±2.8 | – | – | – | – | – | – | – | –
2 | O=C(O[C@@H]1Cc2c(O)cc(O)cc2O[C@@H]1c1cc(O)c(O)c(O)c1)c1cc(O)c(O)c(O)c1 [EGCG, Epigallocatechin gallate] | – | – | – | very high | increased with increasing EGCG concentration | 97.36 ± 2.2 | 55.1 ± 8.5% and 59.8 ± 1.4% | about 90% | 80 | 81% and 83% and 82% and 78% | higher proliferation index
